This passage reports IC50 results from ChEMBL document CHEMBL5634160, “Synthesis, biological evaluation and action mechanism of 7H-[1,2,4] triazolo [3,4-b] [1,3,4] thiadiazine-phenylhydrazone derivatives as α-glucosidase inhibitors” (Eur J Med Chem, 2023).

This test addresses Alpha-glucosidase (Saccharomyces cerevisiae S288c, UniProt P53341+P38158+P07265). The test is described as follows: Inhibition of Saccharomyces cerevisiae alpha-glucosidase using nitrophenol-alpha-D-glucopyranoside (pNPG) as substrate incubated for 15 mins. The format is protein assay.

In the case of `Oc1ccc(/C=N/Nc2nnc3n2N=C(c2ccccc2)CS3)cc1`, the IC50 (commonly the concentration needed to halve the response being measured) is 213.5 µM.
`Fc1ccc(/C=N/Nc2nnc3n2N=C(c2ccccc2)CS3)cc1` returned an IC50 of 50.24 µM.
For the molecule `COc1ccccc1/C=N/Nc1nnc2n1N=C(c1ccccc1)CS2`, the IC50 turned out to be 114.9 µM.
`Oc1ccccc1/C=N/Nc1nnc2n1N=C(c1ccccc1)CS2` registered an IC50 of 55.42 µM.
`Brc1ccccc1/C=N/Nc1nnc2n1N=C(c1ccccc1)CS2` gave a concentration for half-maximal inhibition (IC50) of 32.12 µM.
`Fc1ccccc1/C=N/Nc1nnc2n1N=C(c1ccccc1)CS2` had an IC50 of over 250 µM.
Molecule `Oc1cccc(/C=N/Nc2nnc3n2N=C(c2ccccc2)CS3)c1` yielded an IC50 of 135.7 µM.
`COc1cc(/C=N/Nc2nnc3n2N=C(c2ccccc2)CS3)cc(OC)c1OC`: the concentration for half-maximal inhibition (IC50) is 91.47 µM.
